Test results as given in patent US20130041005A1, “PHARMACEUTICAL COMPOSITIONS COMPRISING NEUROPILIN INHIBITORS, AND THEIR USE FOR THE PREVENTION AND/OR TREATMENT OF ANGIOGENIC DISORDERS AND CANCERS” (TRAGEX PHARMA, priority 2011, published 2013).

Legend:
MDA-MB-436 = assay: WST-1 proliferation assay, MDA-MB-436; format: cell-based; conditions: Homo sapiens; Breast MDA-MB-436, 72 h; read-out: Anti-proliferative activity IC50 (μM) ± SD
Text: (§1) Several cancer cell lines were used: breast cancer cells (MDA-MB-231 (ATTCC® Number HTB-26™), MDA-MB-436 (ATTCC® Number HTB-130™), MDA-MB-438, BT-474 (ATTCC® Number HTB-20™)); cervical cancer cells (HeLa (ATTCC® Number CCL-2™)); colon cancer cells (HCT-116 (ATTCC® Number CCL-247™) and HT-29 (ATTCC® Number HTB-38™)); osteosarcoma cells (U2OS (ATTCC® Number HTB-96™)); pancreas cancer cells (MIA PaCa-2 (ATTCC® Number CRL-1420™) and Panc-10.5 (ATTCC® Number CRL-2547™)); prostate cancer cells (PC-3 (ATTCC® Number CRL-1435™) and LNCaP (ATTCC® Number CRL-1740™)); brain cancer cells (U87 glioblastoma (ATTCC® Number HTB-14™) and SH-SYSY neuroblastoma (ATTCC® Number CRL-2266™)). […]
(§2) After observation of cells under the microscope, old media were removed and the adherent cells washed gently twice with PBS (Phosphate Buffer Saline, —Ca^2+, —Mg^2+, Lonza cat no: 17-512F/12). […] 50 μl of this solution were transferred in 20 μl of isotonic solution and the cells were counted by count cellular (Beckman Coulter). […]
(§3) The cell proliferation WST-1 assay is a colorimetric assay for the quantification of cell proliferation and viability, based on the enzymatic cleavage of the tetrazolium salt WST-1 added to the culture medium, to a water soluble colored formazan dye, detected by absorbance at 450 nm, by mitochondrial succinate-tetrazolium reductase in viable cells. […]

[1] = system: breast cancer cells (MDA-MB-231); assay: Motility assay (videomicroscopy), MDA-MB-231; format: cell-based, Human; conditions: IC50 concentration, 24 h (FIG. 6)
Protocol: The dishes were placed in an enclosed warming incubator on the motorized stage of a computer-controlled Eclipse Ti inverted microscope (Nikon Instruments Europe) equipped with a CCD Cool-SNAP HQ2 camera (Roper Scientific, USA) and a PC workstation. The incubator allowed samples to be kept at 37° C. in a humidified atmosphere containing 5% CO2, 95% air. Phase images were recorded at 100× every 5 min simultaneously over several fields from 0 till 24 h (288 frames). Cell motility was tracked and analyzed for at least 25 cells in each field over three independent experiments. The total distance of migration and the speed of migration were analyzed. The degree of persistence of movement was defined as the ratio between the linear distance and the total distance covered by the cells. Image acquisition and analyses were carried out using Metamorph 7 software (Universal Imaging).

NCI-H460 = assay: WST-1 proliferation assay, NCI-H460; format: cell-based; conditions: Homo sapiens; Lung NCI-H460; read-out: Anti-proliferative activity IC50 (μM) ± SD
Protocol: (§4) All the cancer cell lines were maintained in cultured in DMEM GlutaMAX™ (GIBCO Invitrogen, France, cat no 31966047) enhanced with 10% foetal bovine serum (GIBCO Invitrogen, France, cat no 10270-106) and 1% penicillin G/streptomycin (GIBCO Invitrogen, France, cat no 15140-122). Only Panc-10.5 cells were cultivated in RPMI 1640 medium (Gibco) supplemented with 2 mM L-glutamine, 1.5 g/L sodium bicarbonate, 4.5 g/L glucose, 10 mM HEPES, 1 mM sodium pyruvate, 10 Units/ml human insulin, […] (SVF): 15% (75 ml in 500 ml of medium).
(§5) Cells were grown as subconfluent monolayer and cultured in 75 cm^2 flasks at 37° C., 5% CO2 in a humidified atmosphere, and medium was changed every two days. […]
as §3
(§6) After an incubation period of 72 h, at day 4, were prepared the 19 ml medium with reagent WST-1 1 ml ([…]). […] The cells were incubated at 37° C. in a humidified atmosphere of 5% CO2 for 1 h 30 and the absorbance at 450-655 nm was measured by Microplate Manager 5.2 (Bio-Rad).

MDA-MB-438 = assay: WST-1 proliferation assay, MDA-MB-438; format: cell-based; conditions: Homo sapiens; for IC50: Breast MDA-MB-438, 72 h, read-out: Anti-proliferative activity IC50 (μM) ± SD; for inhibition at 0.1 µM: MDA-MB-438, 0.1 μM; for inhibition at 0.5 µM: MDA-MB-438, 0.5 μM; for inhibition at 1 µM: MDA-MB-438, 1 μM
Text: Several cancer cell lines were used: breast cancer cells (MDA-MB-231 (ATTCC® Number HTB-26™), MDA-MB-436 (ATTCC® Number HTB-130™), MDA-MB-438, BT-474 (ATTCC® Number HTB-20™)); cervical cancer cells (HeLa (ATTCC® Number CCL-2™)); colon cancer cells (HCT-116 (ATTCC® Number CCL-247™) and HT-29 (ATTCC® Number HTB-38™)); osteosarcoma cells (U2OS (ATTCC® Number HTB-96™)); pancreas cancer cells (MIA PaCa-2 (ATTCC® Number CRL-1420™) and Panc-10.5 (ATTCC® Number CRL-2547™)); prostate cancer cells (PC-3 (ATTCC® Number CRL-1435™) and LNCaP (ATTCC® Number CRL-1740™)); brain cancer cells (U87 glioblastoma (ATTCC® Number HTB-14™) and SH-SYSY neuroblastoma (ATTCC® Number CRL-2266™)).
as §4
Cells were grown as subconfluent monolayer and cultured in 75 cm^2 flasks at 37° C., 5% CO2 in a humidified atmosphere, and medium was changed every two days. Only cells from passages 2-6 were used for the experiments.
After observation of cells under the microscope, old media were removed and the adherent cells washed gently twice with PBS (Phosphate Buffer Saline, —Ca^2+, —Mg^2+, Lonza cat no: 17-512F/12). All cells were detached with 3 ml of trypsin/EDTA (chelator of calcium and magnesium ions) (Lonza), incubated for 5 min at 37° C., and examined using a microscope to ensure that the cells were detached and floating. Then, 3 ml TNS (Trypsin Neutralizing Solution, Lonza, France, cat no CC-5002) or of culture medium were added to inactivate the trypsin, and the cell suspension was transferred in a falcon and centrifuged for 7 min at 1400 rpm. The supernatant was removed and the cell pellet resuspended in […] of culture medium. 50 μl of this solution were transferred in 20 μl of isotonic solution and the cells were counted by count cellular (Beckman Coulter). At day 0, 200 μl of cellular suspension (3.10^3 cells/well for the HUVEC cells, breast cancer cells (MDA-MB-231 1.10^4 cells/well, MDA-MB-436 1.10^4 cells/well, MDA-MB-438 2.10^4 cells/well, BT-474 2.5.10^4 cells/well); cervical cancer cells (HeLa 5.000 cells/well); colon cancer cells (HCT-116 5.10^3 cells/well, HCT-29 1.1.10^4 cells/well); osteosarcoma cells (U2OS 8.10^3 cells/well); pancreas cancer cells (MIA PaCa-2 5.10^3 cells/well, Panc-10.5 1.5.10^4 cells/well); prostate cancer cells (PC-3 4.10^3 cells/well, LNCaP 2.10^4 cells/well); brain cancer cells (U87 5.10^3 cells/well, SH-SYSY 8.10^4 cells/well)) were then plated on 96 well plates and incubated at 37° C. in a humidified atmosphere of 5% CO2 for 24 h.
At day 1, the compounds 1 or 2 of the invention were added at increasing concentrations (0.1-10 μM) in the wells and plates were incubated at 37° C. in a humidified atmosphere of 5% CO2 for 72 h.
The cell proliferation WST-1 assay is a colorimetric assay for the quantification of cell proliferation and viability, based on the enzymatic cleavage of the tetrazolium salt WST-1 added to the culture medium, to a water soluble colored formazan dye, detected by absorbance at 450 nm, by mitochondrial succinate-tetrazolium reductase in viable cells. An augmentation in enzyme activity will then lead to an increase in the amount of formazan dye formed, which directly correlates to the number of metabolically active cells in the culture.
After an incubation period of 72 h, at day 4, were prepared the 19 ml medium with reagent WST-1 1 ml ([…]). The medium was removed from the 96 microplate and 200 μl of solution WST-1/medium were added for each well. […]

BT-474 = assay: WST-1 proliferation assay, BT-474; format: cell-based; conditions: Homo sapiens; Breast BT-474, 72 h; read-out: Anti-proliferative activity IC50 (μM) ± SD
Text: as §1, §2, §3

KMS-II = assay: WST-1 proliferation assay, KMS-II; format: cell-based; conditions: Homo sapiens; Myeloma KMS-II; read-out: Anti-proliferative activity IC50 (μM) ± SD
Protocol: as §4, §5, §3, §6

Row | SMILES | IC50 (MDA-MB-436) | motility (migration speed) of cancer cells [1] | IC50 (NCI-H460) | IC50 (MDA-MB-438) | inhibition at 0.1 µM (MDA-MB-438) | inhibition at 0.5 µM (MDA-MB-438) | inhibition at 1 µM (MDA-MB-438) | IC50 (BT-474) | IC50 (KMS-II)
1 | Cc1ccc(-c2nc3ccccc3[nH]2)cc1NC(=S)NC(=O)c1ccc2c(c1)OCCO2 [Compound 1, N-[5-(1H-benzimidazol-2-yl)-2-methylphenyl]-N′-(2,3-dihydro-1,4-benzodioxin-6-ylcarbonyl)thiourea] | 1.5 ± 0.02 µM | significant anti-migratory effect | 0.5 ± 0.09 µM | 1 µM | 4% | 40% | 55% | 2 µM | 2.3 ± 0.01 µM
2 | O=C(NC(=S)Nc1cccc(-c2nc3ccccc3[nH]2)c1)c1ccc2c(c1)OCCO2 [Compound 2, N-[3-(1H-benzimidazol-2-yl)phenyl]-N′-(2,3-dihydro-1,4-benzodioxin-6-ylcarbonyl)thiourea] | 2.3 ± 0.03 µM | significant anti-migratory effect | 0.3 ± 0.04 µM | 0.5 ± 0.03 µM | 34% | 51% | 58% | 1.6 ± 0.06 µM | 1.8 ± 0.02 µM
